Experimental data reported in EP4653437A2 (Innovo Therapeutics Inc., priority 2023, dated 2024).

Key:
A549 cells = test: Measurement of PGE2-increasing activity in A549 cells (IL-1β stimulated, PGE2 quantified in supernatant); type: cell-based; conditions: Homo sapiens, 24 h; concentration of 1 µM of each compound; IL-1β treated A549 cells; read-out: Increased PGE2 production in A549 cells
Experimental: A549 cells were prepared at a cell number of 1 x 10^5/mL in F12K medium containing 10% FBS (Fetal Bovine Serum), and 2 x 10^4/200 µL was added to each well of a 96-well cell culture plate, and then cultured in an incubator with 5% CO2 at 37 °C for 24 hours. After the culture was complete and all F12K medium was removed, all wells were washed once with 100 µL of PBS, and treated with 160 µL of serum-free F12K medium. Then, 20 µL of IL-1β diluted 10-fold to a concentration of 1 ng/mL in serum-free F12K medium was treated to wells to be treated with IL-1β, and 20 µL of serum-free F12K medium was treated to wells not treated with IL-1β. For the wells to be treated with the compound, 20 µL of the compound dissolved in 100% DMSO was diluted to a concentration 10 times of the desired compound concentration in serum-free F12K medium so that the final DMSO concentration treated to the cells was 0.1%, and for the wells not to be treated with the compound, 20 µL of DMSO diluted in serum-free F12K medium so that the final DMSO concentration treated to the cells was 0.1% was treated. In order to confirm the increase or decrease in the secretion amount of PGE2 in the supernatant collected after culturing for 24 hours in an incubator with 5% CO2 at 37 °C, PGE2 was quantified using the Prostaglandin E2 Parameter (SKGE004B).

human 15-PGDH = biological target: T1, human 15-PGDH (Homo sapiens, UniProt P15428); test: Evaluation of 15-PGDH inhibitory activity (fluorescence enzyme assay, NAD+/PGE2); type: biochemical; conditions: human 15-PGDH enzyme, fluorescence Vmax
T1 construct: purchased R&D System 5660-DH
T1 sequence (P15428 1-266): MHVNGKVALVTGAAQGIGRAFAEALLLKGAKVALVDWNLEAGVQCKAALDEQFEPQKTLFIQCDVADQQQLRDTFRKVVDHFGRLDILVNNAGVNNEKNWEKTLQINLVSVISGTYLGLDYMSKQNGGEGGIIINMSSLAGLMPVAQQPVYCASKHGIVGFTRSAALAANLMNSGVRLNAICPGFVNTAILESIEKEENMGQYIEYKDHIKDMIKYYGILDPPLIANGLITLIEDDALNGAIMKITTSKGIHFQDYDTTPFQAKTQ
Experimental: 15-PGDH inhibition activity of Example compounds was measured as follows. 6.7 ng of human 15-PGDH (R&D System# 5660-DH) enzyme (10 µL) was added to a black 96 well plate, 60 µL of buffer (50 mM Tris-HCl, pH 7.5, 0.01% Tween 20) was added, and 10 µL of 200 µM β-Nicotinamide adenine dinucleotide sodium salt (Sigma, Cat# N0632-5G) was added. 10 µL of (10x) compound solution in DMSO was added and reacted for 10 minutes at room temperature.

| Structure (SMILES) | IC50 (human 15-PGDH) [nM] | fold induction at 1 µM (A549 cells) |
| --- | --- | --- |
| O=C(Nc1ccncc1)c1cccc(-c2cccc3c(C(=O)N4CCCCC4)cnn23)c1 [Example 38, 3-(3-(piperidine-1-carbonyl)pyrazolo[1,5-a]pyridin-7-yl)-N-(pyridin-4-yl)benzamide] | ≤ 100 | > 1.5 |
| O=C(c1cncc(-c2cccc3c(C(=O)N4CCCCC4)cnn23)c1)N1CCOCC1 [Example 39, (7-(5-(morpholine-4-carbonyl)pyridin-3-yl)pyrazolo[1,5-a]pyridin-3-yl)(piperidin-1-yl)methanone] | ≤ 100 | < 1.5 |
| CNC(=O)c1cncc(-c2cccc3c(C(=O)N4CCCCC4)cnn23)c1 [Example 40, N-methyl-5-(3-(piperidine-1-carbonyl)pyrazolo[1,5-a]pyridin-7-yl)nicotinamide] | ≤ 100 | > 1.5 |
| O=C(c1cncc(-c2cccc3c(C(=O)N4CCCCC4)cnn23)c1)N1CCC1 [Example 41, azetidin-1-yl(5-(3-(piperidine-1-carbonyl)pyrazolo[1,5-a]pyridin-7-yl)pyridin-3-yl)methanone] | ≤ 100 | > 1.5 |
| O=C(c1cncc(-c2cccc3c(C(=O)N4CCCCC4)cnn23)c1)N1CC(O)C1 [Example 42, (3-hydroxyazetidin-1-yl)(5-(3-(piperidine-1-carbonyl)pyrazolo[1,5-a]pyridin-7-yl)pyridin-3-yl)methanone] | ≤ 100 | > 1.5 |
| COCCNC(=O)c1cncc(-c2cccc3c(C(=O)N4CCCCC4)cnn23)c1 [Example 45, N-(2-methoxyethyl)-5-(3-(piperidine-1-carbonyl)pyrazolo[1,5-a]pyridin-7-yl)nicotinamide] | ≤ 100 | > 1.5 |
| O=C(NCC1CC1)c1cncc(-c2cccc3c(C(=O)N4CCCCC4)cnn23)c1 [Example 46, N-(cyclopropylmethyl)-5-(3-(piperidine-1-carbonyl)pyrazolo[1,5-a]pyridin-7-yl)nicotinamide] | ≤ 100 | > 1.5 |
| CN1CCC(NC(=O)c2cncc(-c3cccc4c(C(=O)N5CCCCC5)cnn34)c2)CC1 [Example 47, N-(1-methylpiperidin-4-yl)-5-(3-(piperidine-1-carbonyl)pyrazolo [1,5-a]pyridin-7-yl)nicotinamide] | ≤ 100 | > 1.5 |
| O=C(c1cncc(-c2cccc3c(C(=O)N4CCCCC4)cnn23)c1)N1CCNCC1 [Example 48, piperazin-1-yl(5-(3-(piperidine-1-carbonyl)pyrazolo[1,5-a]pyridin-7-yl)pyridin-3-yl)methanone] | ≤ 100 | < 1.5 |
| CN1CCN(C(=O)c2cncc(-c3cccc4c(C(=O)N5CCCCC5)cnn34)c2)CC1 [Example 49, (4-methylpiperazin-1-yl)(5-(3-(piperidine-1-carbonyl)pyrazolo[1,5-a]pyridin-7-yl)pyridin-3-yl)methanone] | ≤ 100 | > 1.5 |
| CC(C)N1CCN(C(=O)c2cncc(-c3cccc4c(C(=O)N5CCCCC5)cnn34)c2)CC1 [Example 50, (4-isopropylpiperazin-1-yl)(5-(3-(piperidine-1-carbonyl)pyrazolo[1,5-a]pyridin-7-yl)pyridin-3-yl)methanone] | ≤ 100 | > 1.5 |
| N#CCCNC(=O)c1cncc(-c2cccc3c(C(=O)N4CCCCC4)cnn23)c1 [Example 51, N-(2-cyanoethyl)-5-(3-(piperidine-1-carbonyl)pyrazolo[1,5-a]pyridin-7-yl)nicotinamide] | ≤ 100 | > 1.5 |

The next lines start with results.

| IC50 (human 15-PGDH) [nM] | Structure (SMILES) | fold induction at 1 µM (A549 cells) |
| --- | --- | --- |
| ≤ 100 | O=C(c1cnn2c(-c3ccc(O)c(Cl)c3)cccc12)N1CCCCC1 [Example 21] | > 1.5 |
| ≤ 100 | N#Cc1ccc(-c2cccc3c(C(=O)N4CCCCC4)cnn23)cc1F [Example 22, 2-fluoro-4-(3-(piperidine-1-carbonyl)pyrazolo[1,5-a]pyridin-7-yl)benzonitrile] | > 1.5 |
| ≤ 100 | CN(C)c1cc(-c2cccc3c(C(=O)N4CCCCC4)cnn23)ccc1C#N [Example 23, 2-(dimethylamino)-4-(3-(piperidine-1-carbonyl)pyrazolo[1,5-a]pyridin-7-yl)benzonitrile] | > 1.5 |
| ≤ 100 | O=C(c1cccc(-c2cccc3c(C(=O)N4CCCCC4)cnn23)c1)N1CCOCC1 [Example 26, (7-(3-(morpholine-4-carbonyl)phenyl)pyrazolo[1,5-a]pyridin-3-yl)(piperidin-1-yl)methanone] | > 1.5 |
| ≤ 100 | CNC(=O)c1cccc(-c2cccc3c(C(=O)N4CCCCC4)cnn23)c1 [Example 27, N-methyl-3-(3-(piperidine-1-carbonyl)pyrazolo[1,5-a]pyridin-7-yl)benzamide] | < 1.5 |
| ≤ 100 | CC(C)NC(=O)c1cccc(-c2cccc3c(C(=O)N4CCCCC4)cnn23)c1 [Example 28, N-isopropyl-3-(3-(piperidine-1-carbonyl)pyrazolo[1,5-a]pyridin-7-yl)benzamide] | > 1.5 |
| ≤ 100 | O=C(c1cccc(-c2cccc3c(C(=O)N4CCCCC4)cnn23)c1)N1CCC1 [Example 29, azetidin-1-yl(3-(3-(piperidine-1-carbonyl)pyrazolo[1,5-a]pyridin-7-yl)phenyl)methanone] | > 1.5 |
| ≤ 100 | COCCNC(=O)c1cccc(-c2cccc3c(C(=O)N4CCCCC4)cnn23)c1 [Example 30, N-(2-methoxyethyl)-3-(3-(piperidine-1-carbonyl)pyrazolo[1,5-a]pyridin-7-yl)benzamide] | > 1.5 |
| ≤ 100 | CN(C)CCNC(=O)c1cccc(-c2cccc3c(C(=O)N4CCCCC4)cnn23)c1 [Example 31, N-(2-(dimethylamino)ethyl)-3-(3-(piperidine-1-carbonyl)pyrazolo[1,5-a]pyridin-7-yl)benzamide] | < 1.5 |
| ≤ 100 | O=C(NCC1CC1)c1cccc(-c2cccc3c(C(=O)N4CCCCC4)cnn23)c1 [Example 32, N-(cyclopropylmethyl)-3-(3-(piperidine-1-carbonyl)pyrazolo[1,5-a]pyridin-7-yl)benzamide] | < 1.5 |
| ≤ 100 | CN1CCC(NC(=O)c2cccc(-c3cccc4c(C(=O)N5CCCCC5)cnn34)c2)CC1 [Example 33, N-(1-methylpiperidin-4-yl)-3-(3-(piperidine-1-carbonyl)pyrazolo[1,5-a]pyridin-7-yl)benzamide] | > 1.5 |
| ≤ 100 | O=C(c1cccc(-c2cccc3c(C(=O)N4CCCCC4)cnn23)c1)N1CCNCC1 [Example 34, piperazin-1-yl(3-(3-(piperidine-1-carbonyl)pyrazolo[1,5-a]pyridin-7-yl)phenyl)methanone] | > 1.5 |
| ≤ 100 | N#CCCNC(=O)c1cccc(-c2cccc3c(C(=O)N4CCCCC4)cnn23)c1 [Example 36, N-(2-cyanoethyl)-3-(3-(piperidine-1-carbonyl)pyrazolo[1,5-a]pyridin-7-yl)benzamide] | > 1.5 |
| ≤ 100 | O=C(Nc1cccnc1)c1cccc(-c2cccc3c(C(=O)N4CCCCC4)cnn23)c1 [Example 37, 3-(3-(piperidine-1-carbonyl)pyrazolo[1,5-a]pyridin-7-yl)-N-(pyridin-3-yl)benzamide] | > 1.5 |
